Results as given in patent publication US20050154046A1, “Methods of treating an inflammatory-related disease” (priority 2004, published 2005).

Legend:
[1] = system: IL-1β; experiment: IL-1β secretion (ELISA) in LPS-stimulated THP-1 cells; type: cell-based, human
Method: It was prepared in a solution of dimethyl sulfoxide (DMSO), and stored under −20° C. for the experiments in vitro. Human monocytic cell line, THP-1 (90), was purchased from ATCC. The cells were maintained according to the supplier's instructions. Approximately 1×10^5 cells/ml were cultured at 37° C., 5% CO2 for 24 hours in Modified RPMI-1640 Medium (Invitrogen) supplemented with 10% FBS.
Viability of cells was examined under microscope after trypan blue staining. Protein levels of IL-1β secreted into the culture media by the cells were then measured by ELISA and calculated from its standard curve using an assay Kit from R&D Systems according to instructions provided by the supplier.
Statistical Analysis: All data were expressed as a mean±SD. Statistical significance of any difference between the control (LPS) and experimental groups was determined by the Student's t-test. P values between the 2 groups must be at least smaller than 0.05 to be considered statistically significant.
1) Effects of Meisoindigo and NATURA on the expression/secretion of cytokines IL-1β, IL-6, IL-10: The human monocytic THP-1 cells grown exponentially were stimulated with or without 1 μM of lipopolysaccharide (LPS, Sigma), and exposed for 24 hours to different concentrations of Meisoindigo and NATURA (from 31.25 nM and 62.5 nM), respectively. Viability of cells was examined by trypan blue exception assay.

[2] = system: mouse vaginal epithelium; experiment: Mitotic index in estrogen-stimulated vaginal epithelium of female mice; type: in vivo, Kunming mice; conditions: 200.0 mg/kg orally once a day, 3 days; percent of mitotic cells
Source text: Materials: Meisoindigo was synthesized, purified and its structure characterized by Natrogen Therapeutics, Inc. The purity of the compound was 98.5% as described in the Examples above. A suspension of Meisoindigo was freshly prepared in 0.5% sodium methylcellulose and given orally for the animal tests described below. Other chemicals used in the following experiments were purchased from Sigma.
Pathogen-free female Kunming mice at 12 weeks of age with body weights from 22 to 25 grams were housed 5 per cage, and given, ad libitum, fresh tap water and commercial rodent pellets. Animal rooms were controlled at 24±2° C. with a relative humidity of 60±5% and a 12 hour light/dark cycle (07:00-19:00 hr).
Anti-mitotic Effects of Meisoindigo on Mouse Vaginal Epithelium: Sixty Kunming female mice were randomly divided into 5 groups, 20 in one control group, and 10 in 4 drug-tested groups. All mice were given estrogen at a dose of 0.2 mg/animal for 3 days to allow vaginal epithelial cells to develop under the stimulation of estrogen hormone. Meisoindigo was freshly prepared as a suspension in 0.5% of sodium methylcellulose. The drug was given orally at doses of 50, 100, and 200 mg/kg, respectively, once a day for 3 days. Methotrexate (MTX) was used as a positive control at a dose of 1 mg/kg, i.p. once a day for the same period of time. […] The mitotic index (percent of mitotic cells) was calculated.

[3] = system: idiopathic inflammatory bowel disease; type: in vivo, human
Method: The first diagnosis was performed at North Shore University Hospital Manhasset, Long Island, N.Y. in 1999 by colonoscope. Major symptoms included diarrhea, loose stool and bleeding while their overall condition of health was considered excellent. Clinical-activity index (Table 5) (113) was determined to be between 7 and 8. Their physician prescribed hydrocortisone foam, which they administered for 10 days according to doctor's instructions. […] In early 2002, they went to a well-known and respected Chinese Medical Hospital in Beijing where Flexible Sigmoidoscopy was performed. Again, they were diagnosed as having active inflammatory bowel disease.
At this time, as previous treatments had no effect, their physician prescribed several traditional Chinese medicines. They administered these for several months, yet no improvement of their symptoms resulted. During the period of February 2000 to the summer of 2002, they also tried various other traditional Chinese medicines due to the continued and very troublesome nature of their disease, but nothing was successful. Upon returning to the United States in 2002, they went to the Mount Sinai Medical Center, a nationally recognized American center for the treatment of inflammatory bowel disease. In October 2002, their new physician again performed a colonoscope, together with a histological examination of two biopsy samples (A and B) (FIG. 8, panel A, before the treatment).
These included skin itch, abdominal cramping, pain and bleeding. They then asked their physician for advice and was instructed to use this medication on an intermittently. However, the side effects continued actually worsened each time the medication was used. They then halted all application of this medication.
The patient voluntarily administered Meisoindigo at a recommended dose of 25 mg, once a day for a scheduled three weeks of treatment. […] After nine weeks of remission (three weeks on the medicine, three weeks off of the medicine, and three weeks on the medicine again), the patient again visited their physician and requested a Flexible Sigmoidoscopy to determine if their remission was subjective or objective. The Flexible Sigmoidoscopy was performed on Nov. 4, 2003. After reviewing the results their physician concluded that their inflammation completely arrested.

[4] = system: chronic myeloid leukemia (CML); conditions: cited from earlier work
[5] = system: IL-10; experiment: IL-10 secretion (ELISA) in THP-1 cells; type: cell-based, human
Source text: Viability of cells was examined under microscope after trypan blue staining.
Viability of cells was examined by trypan blue exception assay.

[6] = system: DSS-induced acute ulcerative colitis; experiment: DSS-induced acute ulcerative colitis in Balb/c mice; type: in vivo; conditions: 7 days
Source text: Materials: […] A suspension of Meisoindigo was freshly prepared in 0.5% sodium methylcellulose and given orally for the animal tests described below. DSS (Dextran Sulfate Sodium salt, molecular weight: 36,000-44,000) was purchased from ICN Biomedicals. Other chemicals used in the following experiments were purchased from Sigma. Pathogen-free female Balb/c mice at 12 weeks of age with body weights from 22 to 25 grams were housed 5 per cage, and given, ad libitum, fresh tap water and commercial rodent pellets. Animal rooms were controlled at 24±2° C. with a relative humidity of 60±5% and a 12 hour light/dark cycle (07:00-19:00 hr). Induction of Acute Ulcerative Colitis DSS-induced colitis in Balb/c Mice: Colitis was induced by DSS in drinking water (MW 36,000-50,000, ICN biochemicals) as described previously (112). Briefly, the mice were randomly divided into 3 groups composed of 10 mice each. In the negative control group (Group 1), mice were given fresh tap water ad libitum and MF pellets, freshly changed twice a week, for 7 days. In the positive control group (DSS group, or Group 2), 5% DSS in tap water was given for 7 days to induce colitis, and the mice were fed with MF pellets. In the DSS-Meisoindigo group (test group or Group 3), mice were given 5% DSS drinking water and given Meisoindigo orally once a day at a dose of 50 mg/kg for 7 consecutive days. Fecal indications of colitis were recorded daily, including body weight and nature of feces (loose and/or bleeding or occult blood). Mice were then sacrificed. Colon tissues were taken, fixed in 10% formalin/PBS, and embedded in paraffin. To minimize physical artifacts, the removed colon was put onto a thick qualitative filter paper without stretching. The colon was then exposed inside out by cutting it longitudinally. The slides were stained with H&E and blindly examined histochemically by 3 technician/pathologists. All data was expressed as a mean±SD.

[7] = system: cyclin D1; experiment: Cyclin D1 levels in THP-1 cells; type: cell-based, human; conditions: 31.25 and 62.5 nM, 24 h; data not shown
[8] = 25 mg once a day, before treatment 0
[9] = 25 mg once a day, before treatment 1
[10] = 25 mg once a day, before treatment 2
[11] = 50 mg/kg orally once a day, 5% DSS

CN1C(=O)/C(=C2/C(=O)Nc3ccccc32)c2ccccc21 [Meisoindigo]
reduction of the LPS mediated IL-1β secretion ([1]; 31.25 nM, 24 h, LPS-stimulated THP-1 cells): over 50% | IL-1β (Inhibition), Percentage of Maximal Response Without Cytotoxicity ([1]; LPS-stimulated THP-1 cells, LPS alone 100.00): 48.76 ± 3.68% | effect on IL-1β production ([1]; as low as 31.25 nM (31.25 and 62.5 nM in FIG. 6), 24 h): significantly inhibit | further reduction of IL-1β secretion on increasing the concentration ([1]; up to 8 μM): did not result in further reduction | Mitotic Index (X ± SD) [2]: 16.06±2.66 | clinical response ([3]; 25 mg once a day, after the first three doses): complete remission | Patient Score After Treatment: Abdominal tenderness [3, 8]: 0 | Patient Score After Treatment: Nocturnal diarrhea [3, 8]: 0 | Patient Score After Treatment: Abdominal pain or cramping [3, 9]: 0 | Patient Score After Treatment: Fecal incontinence [3, 9]: 0 | Patient Score After Treatment: Need for antidiarrhea drugs [3, 9]: 0 | Patient Score After Treatment: Diarrhea (No. of daily stools) [3, 10]: 0 | Patient Score After Treatment: General well-being [3, 10]: 0 | Patient Score After Treatment: Visible blood in stool (% of movements) [3, 10]: 0 | Flexible Sigmoidoscopy / pathological examination after treatment ([3]; after nine weeks of remission (three weeks on, three off, three on)): inactive chronic protocolitis suggestive of idiopathic inflammatory bowel disease | total amount of drug needed to obtain a complete cure of the inflammatory bowel disease ([3]; human, in vivo): 525 mg | side effects reported ([4]; 150 mg per day, China): very minor side effects | total dosage needed to achieve the maximal remission of CML [4]: 8696 mg | increase in the IL-10 secretion ([5]; 0.0625 μM, THP-1 cells): Approximately 60% | increase of IL-10 secretion at maximal stimulation ([5]; 62.5 nM, LPS-treated THP-1 cells, 24 h): approximately 2 fold | effect on IL-10 production ([5]; 31.25 and 62.5 nM, 24 h): promoted production | IL-10 (Stimulation), Percentage of Maximal Response Without Cytotoxicity ([5]; LPS-stimulated THP-1 cells, LPS alone −18.27): 201.97 ± 11.2% | elevation of LPS-suppressed IL-10 ([5]; similar concentrations (as low as 31.25 nM), FIG. 6A): ~2 fold | reduction of the ulcerations versus positive control group ([6]; 50 mg/kg orally once a day): 55% | animals with occult blood [6, 11]: 40% | other symptoms such as loose stool [6, 11]: less severe than that of the control group | ulcerative damage of the colon (count under microscope) ([6]; 50 mg/kg orally, positive control 6.38±2.20): 2.89±1.46 | effect on levels of cyclin D1 [7]: failed to inhibit
